# Source: PMC6290023 (Scientific Reports, 2018)
# Peptide text beside a SMILES is read from it.
# Assays:
# LPS-stimulated MG6 cells = assay: Anti-inflammatory effect in LPS-stimulated MG6 cells (TNF-α / IL-6 ELISA); type: cell-based, mouse
# Protocol: MG6 cells were obtained from RIKEN BRC (Tsukuba, Japan)[25],[26]. The MG6 cells were maintained in DMEM (Nakarai, Kyoto, Japan) supplemented with 10% FBS (Thermo Fisher Scientific, Waltham, MA, USA), 10 μg/ml insulin (Sigma-Aldrich, St. Louis, MO, USA) and 100 μM 2-mercaptoethanol (Sigma-Aldrich). These cells (1 × 10^5 cells) were plated in 96-well plastic culture dishes. After overnight incubation, the medium was replaced with DMEM supplemented with 4% FBS. LPS (Escherichia coli 0111: B4; Sigma-Aldrich, St. Louis, MO, USA) and MHP1 or modified MHP1 was added to the medium, which was then harvested at 24 h after stimulation. In the experiment checking the stability at 26 or 37 °C, MHP1-Ac or MHP1-AcN was incubated at 26 or 37 °C for 24 h before adding to the medium.
# The concentrations of TNF-α and IL-6 were measured using commercially available ELISA kits: TNF-α, Quantikine Mouse TNF-α ELISA Kit (R&D systems); IL-6, Quantikine Mouse IL-6 ELISA Kit (R&D systems).
# [1] = tested on: FeCl3-induced thrombosis model in CCA; assay: FeCl3-induced thrombosis model in CCA, thrombolysis with tPA; type: in vivo; details: mouse, MHP1-AcN 150 μg/mice combined with tPA 10 mg/kg, 30 min after CCA occlusion
# Protocol: The ischemic damage was evaluated at 48 h after MCAo in sections stained with cresyl violet. Coronal sections (12 μm thickness) were made at −1.4, −0.7, 0, 0.7 and 1.4 mm from the bregma, mounted on the stereomicroscope and photographed. The volume of the infarct was calculated by the sum of each area of all sections corrected by cerebral edema and multiplied by the thickness of the slices. In the experiment of tPA-induced hemorrhage, PE10-catheter was placed in the right internal jugular vein at 6 h after ischemia. The nylon suture was then removed and 10% of the MHP-AcN mixture (150 µg/mice) and tPA (10 mg/kg) were injected followed by continuous injection of residual mixture of MHP1-AcN and tPA using a syringe pump (UNIVENTOR 400 ANAESTHESIA UNIT, ZTN, MALTA). In the experiment of FeCl3 -induced thrombosis model in CCA, a piece of filter paper soaked in 7.5% FeCl3 was placed on the right CCA for 1 min and it was rinsed with saline. Blood flow was recorded by using a laser speckle blood flow imager (OMEGAZONE OZ-2, OMEGAWAVE, INC., Tokyo, Japan). tPA (10 mg/kg) or mixture of MHP1-AcN (150 μg/mice) and tPA was started to be administered at 30 min after CCA occlusion.
# [2] = LPS-stimulated MG6 cells, medium harvested 24 h after stimulation, ELISA
smiles,measurement,setting,value
CC[C@H](C)[C@H](NC(=O)[C@H](CO)NC(=O)[C@@H](NC(=O)[C@H](CCCCN)NC(=O)[C@@H](NC(=O)[C@@H](NC(=O)[C@H](Cc1ccc(O)cc1)NC(=O)[C@@H](NC(=O)[C@H](CCSC)NC(=O)[C@H](CC(C)C)NC(C)=O)C(C)C)C(C)C)C(C)C)[C@@H](C)O)C(=O)N[C@@H](CCCCN)C(=O)N[C@H](C(=O)N1CCC[C@H]1C(=O)N[C@@H](CO)C(=O)N[C@@H](CO)C(=O)N[C@@H](Cc1c[nH]cn1)C(=O)N[C@@H](CC(N)=O)C(=O)N[C@@H](CC(C)C)C(=O)N[C@@H](CCSC)C(=O)N[C@@H](CCCCN)C(=O)NCC(=O)NCC(=O)N[C@@H](CO)C(=O)N[C@H](C(=O)N[C@@H](CCCCN)C(=O)N[C@@H](CC(N)=O)C(=O)N[C@@H](Cc1c[nH]c2ccccc12)C(=O)N[C@@H](CO)C(=O)NCC(=O)N[C@@H](CC(N)=O)C(N)=O)[C@@H](C)O)[C@@H](C)CC [MHP1-AcN] (Ac-LMVYVVKTSIKIPSSHNLMKGGSTKNWSGN-NH2),anti-inflammatory effects at 1 µg/ml,"LPS-stimulated MG6 cells; LPS-stimulated MG6 cells, 1 µg/ml peptide",anti-inflammatory effects were seen
same,dose dependency of anti-inflammatory effects,"LPS-stimulated MG6 cells; LPS-stimulated MG6 cells, 24 h, ELISA",Dose-dependent anti-inflammatory effects were observed
same,inhibition of IL-6 expression compared with MHP1,LPS-stimulated MG6 cells; [2],more effective than MHP1
same,inhibition of TNF-α expression compared with MHP1,LPS-stimulated MG6 cells; [2],more effective than MHP1
same,"expression of TNF-α with peptide pre-incubated at 4, 37 or 26 °C (retention of anti-inflammatory effect)","LPS-stimulated MG6 cells; peptide incubated at 4, 37 or 26 °C for 24 h, then added to LPS-stimulated MG6 cells",no significant differences
same,effect on time of recanalization by tPA,[1],did not affect the time of recanalization
